No end group written: not given here.

Format in all cases: cell-based
For experiment [1], the system named is Human hair follicle dermal papilla cells. The experiment in a line: DPC proliferation assay (MTT). The following applies: serum-free medium, incubation for 3 days, absorbance 550 nm. The method, then:
Human hair follicle dermal papilla cells were seeded at a density of 2×10^3 cells/well on 96-well plates, followed by incubation overnight. After changing into serum-free medium, the cells were treated with the peptides, followed by incubation for 3 days, and then the wells were treated with 4 mg/ml MTT solution, followed by reaction for 4 hours. The resulting formazan was solubilized with DNSO, and then the absorbance was measured at 550 nm using a microplate reader.

The test system of a further experiment is β-catenin. The experiment in a line: β-Catenin activity test (western blotting, nuclear and cytoplasmic proteins). As to conditions: human hair follicle dermal papilla cells, 15 and 30 minutes. The method, then: Human hair follicle dermal papilla cells were seeded at a density of 4×10^5 cells/well on 6-well plates, followed by incubation overnight. After changing into serum-free medium, the cells were treated with the peptides, followed by incubation for 15 and 30 minutes, and then the wells were harvested to isolate nuclear and cytoplasmic proteins. Western blotting was performed using β-catenin (Santa Cruz Biotechnology, USA) to compare β-catenin expression patterns.

A further experiment has as its system KGF. The experiment in a line: KGF RT-PCR. The following applies: human hair follicle dermal papilla cells, 24 hours. The method, then:
(§1) Human hair follicle dermal papilla cells were seeded at a density of 4×10^5 cells/well on 6-well plate, followed by incubation overnight. After changing into serum-free medium, the cells were treated with the peptides, followed by incubation for 24 hours, and then the wells were harvested to isolate RNA. After RNA quantification, cDNA synthesis was conducted using the cDNA synthesis kit (Intron, Korea), followed by PCR using PCR premix (Intron, Korea) and respective KGF and VEGF primers, and then electrophoresis was performed on 5% agarose gel to compare the mRNA expression levels of the growth factors in sample treatment conditions.

In a further experiment the test system is PI3K. The experiment in a line: PI3K western blotting. As to conditions: human hair follicle dermal papilla cells, 15 and 30 minutes. The procedure: (§2) Human hair follicle dermal papilla cells were seeded at a density of 4×10^5 cells/well on 6-well plate, followed by incubation overnight. After changing into serum-free medium, the cells were treated with the peptides, followed by incubation for 15 and 30 minutes, and then the wells were harvested to prepare cell lysate. Western blotting was performed using PI3K antibodies (Santa Cruz Biotechnology, USA) and phospho-ERK antibody (Cell Signaling Technology, USA) to compare protein expression patterns.

Another experiment concerns ERK. The experiment in a line: p-ERK western blotting. The following applies: human hair follicle dermal papilla cells, 15 and 30 minutes. The method, then:
as §2

In a further experiment the test system is TGF-β1. The experiment in a line: TGF-β1 RT-PCR. As to conditions: human hair follicle dermal papilla cells, 24 hours. The method, then: as §1, with “Korea) and TGF-β1 primers, and” for “Korea) and respective KGF and VEGF primers, and”, “factors in respective sample treatment” for “factors in sample treatment”
The test system of the next experiment is Bcl-2. The experiment in a line: Bcl-2 western blotting. As to conditions: human hair follicle dermal papilla cells, 24 hours. The procedure: (§3) Human hair follicle dermal papilla cells were seeded at a density of 4×10^5 cells/well on 6-well plate, followed by incubation overnight. After changing into serum-free medium, the cells were treated with the peptides, followed by incubation for 24 hours, and then the wells were harvested to prepare cell lysate. Western blotting was performed using Bcl-2 and Bax antibodies (Santa Cruz Biotechnology, USA) to compare protein expression patterns.

The subject of a further experiment is Bax. The experiment in a line: Bax western blotting. The following applies: human hair follicle dermal papilla cells, 24 hours. The method, then:
as §3

The next experiment relates to keratin-14. The experiment in a line: Keratin-14 RT-PCR. As to conditions: human hair follicle dermal papilla cells, 24 hours. The method, then: (§4) Human hair follicle dermal papilla cells were seeded at a density of 5×10^5 cells/well on 6-well plates, followed by incubation overnight. After changing into serum-free medium, the cells were treated with the peptides, followed by incubation for 24 hours, and then the wells were harvested to isolate RNA. After RNA quantification, cDNA synthesis was conducted using the cDNA synthesis kit (Intron, Korea), followed by PCR using PCR premix (Intron, Korea) and Ha3-II and keratin-14 primers, and then electrophoresis was performed on 5% agarose gel to compare the mRNA expression levels of the growth factors in respective sample treatment conditions.

Experiment [2] deals with DKK-1. The experiment in a line: DKK-1 RT-PCR. As to conditions: human hair follicle dermal papilla cells, DKK-1 increased by DHT, 24 hours. The procedure: as §4, with “DKK-1” for “Ha3-II and keratin-14”
Experiment [3] concerns DKK-1. The experiment in a line: DKK-1 western blotting. As to conditions: human hair follicle dermal papilla cells, DKK-1 increased by DHT, 24 hours. The method, then: Human hair follicle dermal papilla cells were seeded at a density of 4×10^5 cells/well on 6-well plate, followed by incubation overnight. After changing into serum-free medium, the cells were treated with the peptides, followed by incubation for 24 hours, and then the wells were harvested to prepare cell lysate. Western blotting was performed using DKK-1 antibodies (Santa Cruz Biotechnology, USA) to compare protein expression patterns.

For experiment [4], the system named is melanocytes (B16F10 cell line). The experiment in a line: Melanin measurement assay. As to conditions: 72 hours, absorbance 490 nm. The procedure: After melanocytes (B16F10 cell line) in 6-well plates were cultured in an incubator at 37° C. for 24 hours, the medium of each plate was removed and exchanged with a fresh medium, followed by treatment with the present peptide with different concentrations. After the incubation for 72 hours, the culture medium was removed, and the cells were taken off and then transferred into 1.5-ml tubes, followed by centrifugation at 13,000 rpm for 3 minutes. The supernatant was removed, and cell pellets were collected to observe melanin. Then, 150 μl of 2 M NaOH was added to the cell pellets to lyse intracellular melanin at 60° C. for 30 minutes. Then, 100 μl of the supernatant obtained from the lysis was added into each well of 96-well plates, and the absorbance was measured at 490 nm.

Experiment [5] deals with tyrosinase. The experiment in a line: Tyrosinase activity assay. As to conditions: B16F10 cells, 72 hours, L-dopa, absorbance 475 nm. The method, then: Melanoma cell line (B16F10) cells were cultured in 6-well culture plates for 24 hours, and treated with a peptide with difference concentrations, followed by culture for 72 hours. The 6-well culture plates were loaded on ice and washed with cool PBS, and then 300 μl of 0.1 M sodium phosphate buffer (pH 6.8 lysis buffer) containing 1% Triton X-100 was added. The cells were collected in 1.5-mL tubes, and then cell membranes were disrupted by repeating five times rapid-freezing at […] and thawing. After centrifugation at 13,000 rpm for 20 minutes, the supernatant was collected in other 1.5-mL tubes, and the protein of the samples was quantified. The samples were diluted to have the same protein concentration and then dispensed in each three wells in a 96-well culture plate, and then 20 μl of 10 mM L-dopa was added, followed by incubation at 37° C. for 1 hour.

Experiment [6] relates to MITF. The experiment in a line: Melanogenesis-related gene RT-PCR: MITF. The following applies: B16F10 cell line, 72 hours. The procedure: (§5) Melanocytes (B16F10 cell line) were incubated on 6-well culture plates in an incubator for 24 hours, and were treated with the peptides of the present invention with different concentrations. After RNA was extracted from the cells incubated for 72 hours, cDNA was prepared. PCR was performed by using respective primers specific to MITF and tyrosinase, which are factors involved in melanogenesis, and the expression changes of the respective genes were observed.

Experiment [7] deals with tyrosinase. The experiment in a line: Melanogenesis-related gene RT-PCR: tyrosinase. As to conditions: B16F10 cell line, 72 hours. The method, then: as §5
Experiment [8] deals with MITF. The experiment in a line: Melanogenesis-related protein western blotting: MITF. The following applies: B16F10 cell line, 72 hours. The method, then: (§6) Melanocytes (B16F10 cell line) were incubated on 6-well culture plates for 24 hours, and were treated with the peptides of the present invention with different concentrations. After 72-hour incubation, the cells were lysed, and the cells were subjected to western blotting using specific antibodies (two types, both from Santa Cruz Biotechnology, USA) to investigate the expression of MITF and tyrosinase, which are factors involved in melanogenesis.

Experiment [9] deals with tyrosinase. The experiment in a line: Melanogenesis-related protein western blotting: tyrosinase. The following applies: B16F10 cell line, 72 hours. The procedure: as §6
The test system of another experiment is CREB. The experiment in a line: Melanogenesis-related protein activity assay: CREB phosphorylation (western blotting). As to conditions: B16F10 cell line, 72 hours. The method, then: Melanocytes (B16F10 cell line) were incubated on 6-well culture plates in an incubator for 24 hours, and were treated with the peptide of the present invention with different concentrations. After 72-hour incubation, the cells were lysed, and the cells were subjected to western blotting using specific antibodies (Cell Signaling Technology, USA) to investigate the phosphorylation level of CREB, which is a signaling substance involved in melanogenesis.

The test system of a further experiment is VEGF. The experiment in a line: VEGF RT-PCR. The following applies: human hair follicle dermal papilla cells, 24 hours. The method, then:
as §1

The subject of a further experiment is MSX2. The experiment in a line: MSX2 RT-PCR. The following applies: human hair follicle dermal papilla cells, 24 hours. The method, then: as §1, with “MSX2” for “respective KGF and VEGF”, “level” for “levels”, “factor” for “factors”
For a further experiment, the system named is Ha3-II. The experiment in a line: Ha3-II RT-PCR. As to conditions: human hair follicle dermal papilla cells, 24 hours. The procedure: as §4
A further experiment relates to TRP1. The experiment in a line: Melanogenesis-related gene RT-PCR: TRP1. As to conditions: B16F10 cell line, 72 hours, FIG. 13b.

KWKRSADTL [SEQ ID NO: 2]: the “growth of human hair follicle dermal papilla cells” value in experiment [1] is recorded as “stimulated in a dose-dependent manner”. The “activity of β-catenin” value in the experiment on β-catenin is “increased”. Further, the “expression of KGF (mRNA)” value with KGF is given as “increased”. Besides, the “expression of PI3K” value with PI3K was “increase”. In addition, the “phosphorylation level of ERK” value in the experiment on ERK is “increase”. Also, the “expression of TGF-β1 (mRNA)” value with TGF-β1 is reported as “inhibited”. Also, the “expression of the anti-apoptotic protein Bcl-2” value in the experiment on Bcl-2 was “increased”. Further, the “expression of the apoptosis-related protein Bax” value in the experiment on Bax was “decreased”. Besides, in the experiment on keratin-14, the “mRNA expression of keratin-14” value is reported as “increased”. Besides, in the experiment with DKK-1 [2], the “mRNA expression of DKK-1” value is “decreased”. For the same sequence, the “protein expression of DKK-1” value with DKK-1 [3] was “decreased”. Further, in experiment [4], the melanogenesis entry is on record as “increased”. Moreover, the tyrosinase activity entry in the experiment on tyrosinase [5] is reported as “increased”. Further, in the experiment with MITF [6], the “mRNA expression of MITF transcription factor” value is listed as “increased”. Besides, the “mRNA expression of tyrosinase enzyme” value with tyrosinase [7] is “increased”. Also, the “protein expression of MITF transcription factor” value in the experiment on MITF [8] is on record as “increases”. For the same sequence, the “protein expression of tyrosinase enzyme” value in the experiment on tyrosinase [9] is on record as “increases”. The “phosphorylation level of CREB” value in the experiment on CREB is “increased”.
For the sequence WKWRSADTL [SEQ ID NO: 1], the “growth of human hair follicle dermal papilla cells” value in [1] was “stimulated in a dose-dependent manner”. Besides, the “activity of β-catenin” value with β-catenin is “increased”. The “expression of VEGF (mRNA)” value in the experiment on VEGF is on record as “increased”. For the same sequence, the “phosphorylation level of ERK” value in the experiment with ERK was “increased”. In the experiment on MSX2, the “expression of MSX2 (mRNA)” value is reported as “increased”. For the same sequence, the “expression of TGF-β1 (mRNA)” value in the experiment with TGF-β1 is listed as “inhibited”. The “expression of the anti-apoptotic protein Bcl-2” value in the experiment on Bcl-2 is listed as “increased”. Also, the “expression of the apoptosis-related protein Bax” value in the experiment with Bax is recorded as “decreased”. In addition, in the experiment with Ha3-II, the “mRNA expression of Ha3-II” value is given as “increased”. In the experiment on keratin-14, the “mRNA expression of keratin-14” value is given as “increased”. Moreover, in the experiment on DKK-1 [2], the “mRNA expression of DKK-1” value is “decreased”. Moreover, the “protein expression of DKK-1” value in the experiment with DKK-1 [3] is “decreased”. The melanogenesis entry in [4] is on record as “increased”. The tyrosinase activity result with tyrosinase [5] is “increased”. Further, the “mRNA expression of MITF transcription factor” value in the experiment with MITF [6] is “increased”. Besides, the “mRNA expression of tyrosinase enzyme” value in the experiment with tyrosinase [7] is on record as “increased”. In addition, in the experiment on TRP1, the “mRNA expression of TRP1” value is recorded as “increases”. The “protein expression of MITF transcription factor” value in the experiment with MITF [8] was “increased”. In addition, in the experiment with tyrosinase [9], the “protein expression of tyrosinase enzyme” value is “increased”.

These data come from US10508140B2, “Peptide having hair growth-promoting activity and/or melanin generation-promoting activity, and use thereof” (CAREGEN CO., LTD., priority 2016, dated 2019).
